Data taken from patent US20080096807A1, “Cyclic vasoactive intestinal peptide receptor-2 agonists” (priority 2006, published 2008).
Bridge positions count the residues as written; N and C are the ends. Square brackets hold non-standard residues; d marks the D form. Peptide text beside a SMILES is read from it. ξ: configuration not given here. Thr(3ξ) = CC(O)[C@H](N)C(=O)O; αMeV = CC(C)[C@](C)(N)C(=O)O; Nle = CCCC[C@H](N)C(=O)O

target: T1, human neutrophil elastase (Homo sapiens, UniProt P08246); experiment: Peptide stability to neutrophil elastase (RP HPLC ESI MS); conditions: halftime with human neutrophil elastase 1 to 2 μg/mL in PBS, ambient temperature, normalized to halftime of the reference standard
T1 sequence (P08246 30-247 limits assumed): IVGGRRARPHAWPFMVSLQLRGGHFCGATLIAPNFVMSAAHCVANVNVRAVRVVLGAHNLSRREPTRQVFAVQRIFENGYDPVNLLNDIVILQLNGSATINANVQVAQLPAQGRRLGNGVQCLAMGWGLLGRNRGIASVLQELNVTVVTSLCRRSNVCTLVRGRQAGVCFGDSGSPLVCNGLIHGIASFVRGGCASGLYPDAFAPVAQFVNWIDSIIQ

Row | Relative elastase stability | SMILES
1 | 5.7 | CCCC[C@H](NC(=O)[C@H](CCC(N)=O)NC(=O)[C@H](CCCCN)NC(=O)[C@H](CCCNC(=N)N)NC(=O)[C@H](CC(C)C)NC(=O)[C@H](CCCCN)NC(=O)[C@@H](NC(=O)[C@H](Cc1ccc(O)cc1)NC(=O)[C@H](CC(N)=O)NC(=O)[C@H](CCC(=O)O)NC(=O)[C@@H](NC(=O)[C@H](Cc1ccccc1)NC(=O)[C@@](C)(NC(=O)[C@H](C)NC(=O)[C@H](CC(=O)O)NC(=O)[C@H](C)NC(=O)[C@H](Cc1c[nH]cn1)NC(C)=O)C(C)C)C(C)O)C(C)O)C(=O)N[C@@H](C)C(=O)N[C@@H](C)C(=O)N[C@@H](CCCCN)C(=O)N[C@H]1CCCCNC(=O)C[C@@H](C(=O)N[C@@H](CC(C)C)C(=O)N[C@@H](CCCCN)C(=O)N[C@@H](CCCCN)C(=O)NCC(=O)NCC(=O)N[C@H](C(N)=O)C(C)O)NC(=O)[C@H](CC(N)=O)NC(=O)[C@H](CC(C)C)NC(=O)[C@H](Cc2ccc(O)cc2)NC1=O (stereo partly drawn) [Example 21, Ac-His-Ala-Asp-Ala-MeVal-Phe-Thr-Glu-Asn-Tyr-Thr-Lys-Leu-Arg-Lys-Gln-Nle-Ala-Ala-Lys-Lys-Tyr-Leu-Asn-Asp-Leu-Lys-Lys-Gly-Gly-Thr-NH2]
2 | 1.8 | CCCC[C@H](NC(=O)[C@H](CCCNC(=N)N)NC(=O)[C@H](CCCCN)NC(=O)[C@H](CCCNC(=N)N)NC(=O)[C@H](CC(C)C)NC(=O)[C@H](CCCCN)NC(=O)[C@@H](NC(=O)[C@H](Cc1ccc(O)cc1)NC(=O)[C@H](CC(N)=O)NC(=O)[C@H](CCC(=O)O)NC(=O)[C@@H](NC(=O)[C@H](Cc1ccccc1)NC(=O)[C@@](C)(NC(=O)[C@H](C)NC(=O)[C@H](CC(=O)O)NC(=O)[C@H](CO)NC(=O)[C@H](Cc1c[nH]cn1)NC(C)=O)C(C)C)C(C)O)C(C)O)C(=O)N[C@@H](C)C(=O)N[C@@H](C)C(=O)N[C@@H](CCCCN)C(=O)N[C@H]1CCCCNC(=O)C[C@@H](C(=O)N[C@@H](CC(C)C)C(=O)N[C@@H](CCCCN)C(=O)N[C@@H](CCCCN)C(=O)NCC(=O)NCC(=O)N[C@H](C(N)=O)C(C)O)NC(=O)[C@H](CC(N)=O)NC(=O)[C@H](CC(C)C)NC(=O)[C@H](Cc2ccc(O)cc2)NC1=O (stereo partly drawn) [Example 22, Ac-His-Ser-Asp-Ala-MeVal-Phe-Thr-Glu-Asn-Tyr-Thr-Lys-Leu-Arg-Lys-Arg-Nle-Ala-Ala-Lys-Lys-Tyr-Leu-Asn-Asp-Leu-Lys-Lys-Gly-Gly-Thr-NH2]
3 | 3.6 | CCCC[C@H](NC(=O)[C@H](CCC(N)=O)NC(=O)[C@H](CCCCN)NC(=O)[C@H](CCCNC(=N)N)NC(=O)[C@H](CC(C)C)NC(=O)[C@H](CCCCN)NC(=O)[C@@H](NC(=O)[C@H](Cc1ccc(O)cc1)NC(=O)[C@H](CC(N)=O)NC(=O)[C@H](CCC(=O)O)NC(=O)[C@@H](NC(=O)[C@H](Cc1ccccc1)NC(=O)[C@@](C)(NC(=O)[C@H](C)NC(=O)[C@H](CC(=O)O)NC(=O)[C@H](C)NC(=O)[C@H](Cc1c[nH]cn1)NC(C)=O)C(C)C)C(C)O)C(C)O)C(=O)N[C@@H](C)C(=O)N[C@@H](C)C(=O)N[C@@H](CCCCN)C(=O)N[C@H]1CCCCNC(=O)C[C@@H](C(=O)N[C@@H](CC(C)C)C(=O)N[C@@H](CC(C)C)C(=O)N[C@@H](CCCCN)C(=O)NCC(=O)NCC(=O)N[C@H](C(N)=O)C(C)O)NC(=O)[C@H](CC(N)=O)NC(=O)[C@H](CC(C)C)NC(=O)[C@H](Cc2ccc(O)cc2)NC1=O (stereo partly drawn) [Example 23, Ac-His-Ala-Asp-Ala-MeVal-Phe-Thr-Glu-Asn-Tyr-Thr-Lys-Leu-Arg-Lys-Gln-Nle-Ala-Ala-Lys-Lys-Tyr-Leu-Asn-Asp-Leu-Leu-Lys-Gly-Gly-Thr-NH2]
4 | 3.4 | CCCC[C@H](NC(=O)[C@H](CCC(N)=O)NC(=O)[C@H](CCCCN)NC(=O)[C@H](CCCNC(=N)N)NC(=O)[C@H](CC(C)C)NC(=O)[C@H](CCCCN)NC(=O)[C@@H](NC(=O)[C@H](Cc1ccc(O)cc1)NC(=O)[C@H](CC(N)=O)NC(=O)[C@H](CCC(=O)O)NC(=O)[C@@H](NC(=O)[C@H](Cc1ccccc1)NC(=O)[C@@](C)(NC(=O)[C@H](C)NC(=O)[C@H](CC(=O)O)NC(=O)[C@H](CO)NC(=O)[C@H](Cc1c[nH]cn1)NC(C)=O)C(C)C)C(C)O)C(C)O)C(=O)N[C@@H](C)C(=O)N[C@@H](C)C(=O)N[C@@H](CCCCN)C(=O)N[C@H]1CCCCNC(=O)C[C@@H](C(=O)N[C@@H](CC(C)C)C(=O)N[C@@H](CC(C)C)C(=O)N[C@@H](CCCCN)C(=O)NCC(=O)NCC(=O)N[C@H](C(N)=O)C(C)O)NC(=O)[C@H](CC(N)=O)NC(=O)[C@H](CC(C)C)NC(=O)[C@H](Cc2ccc(O)cc2)NC1=O (stereo partly drawn) [Example 20, Ac-His-Ser-Asp-Ala-MeVal-Phe-Thr-Glu-Asn-Tyr-thr-Lys-Leu-Arg-Lys-Gln-Nle-Ala-Ala-Lys-Lys-Tyr-Leu-Asn-Asp-Leu-Leu-Lys-Gly-Gly-Thr-NH2] (Ac-HSDA[αMeV]F[Thr(3ξ)]ENY[Thr(3ξ)]KLRKQ[Nle]AAKKYLNDLLKGG[Thr(3ξ)]-NH2; lactam 21-25)
